Experimental data from US5519015A, “Carbapenem antibiotic compounds” (Zeneca Limited, priority 1992, dated 1996).
In brackets after ≈: the same amount, converted by molar mass.

Assays:
Type in all cases: cell-based
S. aureus Oxford = assay: MIC by agar-dilution technique, Diagnostic Sensitivity Test, S. aureus Oxford; settings: Staphylococcus aureus, inoculum 10^4 CFU/spot
Text: (§1) The following results were obtained for representative compounds on a standard in vitro test system using Diagnostic Sensitivity Test. The antibacterial activity is described in terms of the minimum inhibitory concentration (MIC) determined by the agar-dilution technique with an inoculum size of 10^4 CFU/spot.

E. coli DCO = assay: MIC by agar-dilution technique, Diagnostic Sensitivity Test, E. coli DCO; settings: Escherichia coli, inoculum 10^4 CFU/spot
Text: as §1

[1] = tested on: Enterobacter cloacae P99-; assay: MIC by agar-dilution technique, Diagnostic Sensitivity Test, Enterobacter cloacae P99-
Text: as §1

P. morganii I + 001 = assay: MIC by agar-dilution technique, Diagnostic Sensitivity Test, P. morganii I + 001; settings: Morganella morganii, inoculum 10^4 CFU/spot
Text: as §1

B. fragilis AMP S = assay: MIC by agar-dilution technique, Diagnostic Sensitivity Test, B. fragilis AMP S; settings: Bacteroides fragilis, inoculum 10^4 CFU/spot
Text: as §1

**Q.** Which MIC (S. aureus Oxford) does the source give for `C[C@@H](O)[C@H]1C(=O)N2C(C(=O)O)=C(S[C@@H]3CN[C@H](C(=O)Nc4csc(C(=O)O)c4)C3)[C@H](C)[C@H]12` [Example 1, (1R,5S,6S,8R,2'S,4'S)-2-(2-(2-Carboxy-4-thienylcarbamoyl)pyrrolidin-4-ylthio)-6-(1-hydroxyethyl)-1-methylcarbapenem-3-carboxylic acid] here?
**A.** The MIC was 125 ng/mL (≈ 0.26 µM).

**Q.** And the MIC (E. coli DCO)?
**A.** The MIC was 8 ng/mL (≈ 0.0166 µM).

**Q.** What about the MIC [1] of the same compound?
**A.** The MIC was 8 ng/mL (≈ 0.0166 µM).

**Q.** What about the MIC (P. morganii I + 001) of the same compound?
**A.** Its MIC is 8 ng/mL.

**Q.** And the MIC (B. fragilis AMP S)?
**A.** Its MIC is 125 ng/mL (≈ 0.26 µM).
